How the values were obtained:
SARS = assay: microbe, parasite or virus in culture; assay type: cell-based, SARS-CoV; details: Severe acute respiratory syndrome coronavirus, Vero, read-out: average EC50 (50% virus inhibitory concentration)
SARS-CoV-2 = SARS-CoV-2 viral transcript levels by quantitative real-time PCR in Vero E6 cells; assay type: cell-based; details: for EC50: Severe acute respiratory syndrome coronavirus 2, Vero C1008, Vero E6 cells, compound added 3 hours after virus (100 TCID50), assayed 48 hours later, read-out: EC50, viral transcript copy number
in vitro = details: African green monkey
MERS = assay: microbe, parasite or virus in culture; assay type: cell-based, MERS-CoV; details: Middle East respiratory syndrome-related coronavirus, Vero, read-out: average EC50 (50% virus inhibitory concentration)

Structure (SMILES) | EC50 (SARS) [µM] | selectivity index (CC50/EC50) (SARS-CoV-2; SARS-CoV-2, Vero E6 cells) | EC50 (SARS-CoV-2) [µM] | CC50 (in vitro) [µM] | EC50 (MERS) [µM]
Cc1cccc(/C=N/Nc2cc(N3CCOCC3)nc(OCCc3ccccn3)n2)c1 [apilimod dimesylate] | 3.7 | 9.1 | 2.2 | 20 | 13.8
CCC(CC)COC(=O)[C@H](C)N[P@](=O)(OC[C@H]1O[C@@](C#N)(c2ccc3c(N)ncnn23)[C@H](O)[C@@H]1O)Oc1ccccc1 [remdesivir] |  |  | 0.7 | 205 | 

From patent US20210244743A1 (priority 2020, published 2021)
